This is an account of results in ChEMBL document CHEMBL3045932 (J Pestic Sci, 2005).

In data set [1] the test system is Oryza sativa. Description: Toxicity in zero transplanted Oryza sativa (rice) assessed as growth inhibition at 5 to 10 g/a by greenhouse test in presence of fenitrothion. The class given is organism-based. The settings on record: in vivo.
The subject of data set [2] is Echinochloa oryzicola. Description: Herbicidal activity against Echinochloa oryzicola assessed as shoot length after 7 days by hydroponics test in presence of 1-aminobenzotriazole. The class given is functional, organism-based.
A short description of data set [3]: Drug metabolism assessed as formation of 1-[1-(3,5-dichlorophenyl)-1-methylethyl]-4-methyl-3-phenyl-3-pyrrolin-2-one in presence of porcine esterase and 1 uM triphenyl phosphate. The class given is physicochemical. As to conditions: pig, isolated protein.
The subject of data set [4] is Oryza sativa. Description: Toxicity in 2 cm transplanted Oryza sativa (rice) assessed as growth inhibition at 10 g/a by greenhouse test. The settings on record: in vivo. The class given is organism-based.
Data set [5] has as its system Oryza sativa. As to the kind of experiment: Toxicity in zero transplanted Oryza sativa (rice) assessed as growth inhibition at 5 to 10 g/a by greenhouse test in presence of triphenyl phosphate. The class given is organism-based. As to conditions: in vivo.
A short description of data set [6]: Drug metabolism assessed as formation of 1-[1-(3,5-dichlorophenyl)-1-methylethyl]-4-methyl-3-phenyl-3-pyrrolin-2-one in presence of porcine esterase. The class given is physicochemical. The settings on record: pig, isolated protein.
Data set [7] has as its system Echinochloa oryzicola. Description: Herbicidal activity against Echinochloa oryzicola assessed as shoot length after 7 days by hydroponics test in presence of tributylphosphate. The class given is functional, organism-based.
Data set [8] concerns Oryza sativa. Description: Toxicity in zero transplanted Oryza sativa (rice) assessed as growth inhibition at 5 to 10 g/a by greenhouse test. The class given is organism-based. As to conditions: in vivo.
Data set [9] is described as follows: Drug metabolism assessed as parent compound level in presence of porcine esterase. The class given is physicochemical. As to conditions: pig, isolated protein.
In data set [10] the test system is Echinochloa oryzicola. Description: Herbicidal activity against 2.5-leaf stage of Echinochloa oryzicola assessed as growth inhibition at 2.5 g/a by greenhouse test in presence of triphenyl phosphate. The class given is functional, organism-based.
Data set [11] relates to Echinochloa oryzicola. Description: Herbicidal activity against 2.5-leaf stage of Echinochloa oryzicola assessed as growth inhibition at 2.5 g/a by greenhouse test. The class given is functional. The settings on record: read-out: GI.
The test system of data set [12] is Echinochloa oryzicola. Description: Herbicidal activity against Echinochloa oryzicola assessed as shoot length after 7 days by hydroponics test. As to conditions: 168 h, read-out: I50. The class given is functional, organism-based.
Data set [13] has as its system Echinochloa oryzicola. Description: Herbicidal activity against 2.5-leaf stage of Echinochloa oryzicola assessed as growth inhibition at 2.5 g/a by greenhouse test in presence of fenitrothion. The class given is functional, organism-based.
The nature of data set [14]: Drug metabolism assessed as parent compound level in presence of porcine esterase and 10 uM of triphenyl phosphate. The class given is physicochemical. The settings on record: pig, isolated protein.
Data set [15] has as its system Oryza sativa. As to the kind of experiment: Drug metabolism in 2.5-leaf stage Oryza sativa (rice) assessed as 1-[1-(3,5-dichlorophenyl)-1-methylethyl]-4-methyl-3-phenyl-3-pyrrolin-2-one level per gram of fresh weight at 25 nM after 6 days. As to conditions: in vivo, 144 h, 0.025 µM. The class given is ADME, organism-based.
The test system of data set [16] is Echinochloa oryzicola. As to the kind of experiment: Herbicidal activity against Echinochloa oryzicola assessed as shoot length after 7 days by hydroponics test in presence of fenitrothion. The class given is functional, organism-based.
Data set [17] concerns Echinochloa oryzicola. As to the kind of experiment: Herbicidal activity against Echinochloa oryzicola assessed as shoot length after 7 days by hydroponics test in presence of triphenyl phosphate. The class given is functional, organism-based.
For data set [18], the system named is Oryza sativa. Description: Toxicity in Oryza sativa (rice) assessed as shoot length after 7 days by hydroponics test. The class given is organism-based. As to conditions: 168 h, read-out: I50.
Data set [19] can be described thus: Drug metabolism assessed as parent compound level in presence of porcine esterase and 1 uM of triphenyl phosphate. The settings on record: pig, isolated protein. The class given is physicochemical.
Data set [20] concerns Echinochloa oryzicola. Description: Drug metabolism in 2.5-leaf stage Echinochloa oryzicola assessed as 1-[1-(3,5-dichlorophenyl)-1-methylethyl]-4-methyl-3-phenyl-3-pyrrolin-2-one level per gram of fresh weight at 25 nM after 6 days. The class given is ADME, organism-based. The settings on record: in vivo, 144 h, 0.025 µM.
Data set [21] can be described thus: Drug metabolism assessed as formation of 1-[1-(3,5-dichlorophenyl)-1-methylethyl]-4-methyl-3-phenyl-3-pyrrolin-2-one in presence of porcine esterase and 10 uM triphenyl phosphate. The class given is physicochemical. As to conditions: pig, isolated protein.

Active and inactive are the calls of the source. No cut-off for these calls is given here.

For `COC(=O)C1(c2ccccc2)C(=O)N(C(C)(C)c2cc(Cl)cc(Cl)c2)C=C1C` (stereo not given), the Activity result in the data set with Oryza sativa [1] is on record as “Non-toxic”; with Oryza sativa [4], “Non-toxic”; in the data set with Oryza sativa [5] it was “Non-toxic”; in the data set with Oryza sativa [8] it was “Toxic”. Further, the result in the data set on Echinochloa oryzicola [2] and with Echinochloa oryzicola [7] was Active. Further, the Drug metabolism in [3] stood at 2.69 µM; in data set [6] it was 3 µM; in data set [9] it was 1.97 µM; in data set [14] it was 4.26 µM; with Oryza sativa [15], 0.47 nM; in data set [19], 2.5 µM. For the same compound, the results for the Drug metabolism (in the data set on Echinochloa oryzicola [20]; in [21]) were 1.88 nM and 0.66 µM, respectively. The “growth inhibition (GI)” value in the data set on Echinochloa oryzicola [10] and in the data set with Echinochloa oryzicola [13] was “inactive” in each case. Further, the inhibition of growth at 250 g/ha in the data set on Echinochloa oryzicola [11] was determined as 96%. In addition, the IC50 came out at 25 nM in the data set with Echinochloa oryzicola [12] and 2630 nM with Oryza sativa [18]. Also, the outcome with Echinochloa oryzicola [16] and with Echinochloa oryzicola [17] was inactive.

With `CC1=C(c2ccccc2)C(=O)N(C(C)(C)c2cc(Cl)cc(Cl)c2)C1`, the “growth inhibition (GI)” value with Echinochloa oryzicola [10] and in the data set with Echinochloa oryzicola [13] was “Active” in each case. The IC50 came to 12 nM in the data set with Echinochloa oryzicola [12] and 115 nM in the data set with Oryza sativa [18].
